Seven compounds from PMC7618375, “Structure and Methyl-lysine Binding Selectivity of the HUSH Complex Subunit MPP8” (Journal of molecular biology, 2024) can be followed below.

SMILES strings stand for the structures. Non-standard residues stand in square brackets, D forms with d. Residues, ends and D or L forms follow the SMILES beside them. Lys(Me3) = C[N+](C)(C)CCCC[C@H](N)C(=O)O

The target of the first experiment is T1, MPP8 CD (chromodomain, residues 55–116) (Homo sapiens, UniProt Q99549).
T1 construct: The MPP8 CD (residues 55–116) was cloned with a tobacco etch virus (TEV) protease cleavage site; His6 (N); TEV protease cleavage site (ENLYFQG) (N); made in house; host or cells: E. coli BL21 (DE3)
T1 sequence (Q99549 55-116): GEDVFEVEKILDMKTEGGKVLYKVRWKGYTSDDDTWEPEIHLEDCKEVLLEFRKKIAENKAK
The experiment can be described thus: Isothermal titration calorimetry (ITC) of H3K9 and H3K9-like peptides titrated into MPP8 CD. In kind it is binding. As to conditions: 50 mM HEPES pH 7.4, 0.1 M NaCl, 0.5 mM TCEP, 25 °C, 50 μM MPP8 CD in cell, 750 μM peptide in syringe, single-site model. The protocol: H3K9 and H3K9-like peptides, unmethylated or lysine-trimethylated, were chemically synthesized (Bio Basic Inc/NBS Biologicals Ltd). Binding of MPP8 CD to H3K9 and H3K9-like peptides was analyzed in 50 mM HEPES pH 7.4, 0.1 M NaCl, 0.5 mM TCEP at 25 °C (298 K), with an AutoiTC200 calorimeter (MicroCal). The sample cell was loaded with 0.37 ml of 50 μM MPP8 CD and the titrant syringe with 750 μM peptide. 20 serial injections of […] peptide solution were performed at 3 min intervals. The stirring speed was 1,000 rpm and the reference power was maintained at 6.06 µcal s^−1. The net heat absorption or release associated with each injection was calculated by subtracting the heat associated with the injection of peptide solution to buffer. Thermodynamic parameters were extracted from a curve fit to the data to a single-site model with Origin 7.0 (MicroCal).
In general, Kd refers to a measure of binding affinity in units of concentration. A higher Kd goes with lower affinity. `CSCC[C@H](NC(=O)[C@@H](NC(=O)[C@H](CCCC[N+](C)(C)C)NC(=O)[C@H](CCCNC(=N)N)NC(=O)[C@H](C)NC(=O)[C@H](CCCCN)NC(=O)[C@H](Cc1ccccc1)NC(=O)[C@@H](NC(=O)[C@@H](N)CCCCN)C(C)C)[C@@H](C)O)C(=O)N[C@@H](CCCNC(=N)N)C(=O)N[C@H](C(=O)N[C@@H](CO)C(=O)O)C(C)C` [ATF7IP 10-21 K16me3] (H-KVFKAR[Lys(Me3)]TMRVS-OH) came in with a dissociation constant (Kd) of 0.193 ± 0.031 µM.

`CC(C)C[C@H](N)C(=O)N[C@@H](C)C(=O)N[C@H](C(=O)N[C@@H](CCCCN)C(=O)N[C@@H](C)C(=O)N[C@@H](C)C(=O)N[C@@H](CCCNC(=N)N)C(=O)N[C@@H](CCCC[N+](C)(C)C)C(=O)N[C@@H](CO)C(=O)N[C@@H](C)C(=O)N1CCC[C@H]1C(=O)N[C@@H](C)C(=O)N[C@H](C(=O)NCC(=O)NCC(=O)N[C@H](C(=O)N[C@@H](CCCCN)C(=O)O)C(C)C)[C@@H](C)O)[C@@H](C)O` [H3.1 20-36 K27me3, reference compound] had a Kd of over 50 µM.

`CC[C@H](C)[C@H](NC(=O)CNC(=O)[C@H](Cc1c[nH]cn1)NC(=O)[C@@H](NC(=O)[C@H](CO)NC(=O)[C@H](CCCC[N+](C)(C)C)NC(=O)[C@H](CC(C)C)NC(=O)[C@H](C)NC(=O)[C@H](Cc1ccccc1)NC(=O)CNC(=O)[C@@H](N)CCCNC(=N)N)[C@@H](C)O)C(=O)O` [SETDB1 1165-1175 K1170me3] (H-RGFAL[Lys(Me3)]STHGI-OH) returned a Kd of 1.55 µM.

In turn, `CSCC[C@H](NC(=O)[C@@H](NC(=O)[C@H](CCCC[N+](C)(C)C)NC(=O)[C@H](CCCNC(=N)N)NC(=O)[C@H](C)NC(=O)[C@H](CCCNC(=N)N)NC(=O)[C@H](Cc1c[nH]cn1)NC(=O)[C@@H](NC(=O)[C@@H](N)CCCCN)C(C)C)[C@@H](C)O)C(=O)N[C@@H](CO)C(=O)N[C@@H](CCCCN)C(=O)N1CCC[C@H]1C(=O)O` [G9a 179-190 K185me3] (H-KVHRAR[Lys(Me3)]TMSKP-OH) gave a Kd of 1.31 µM.

As to `C[C@H](NC(=O)[C@H](CCCCN)NC(=O)CNC(=O)CNC(=O)[C@@H](NC(=O)[C@H](CO)NC(=O)[C@H](CCCC[N+](C)(C)C)NC(=O)[C@H](CCCNC(=N)N)NC(=O)[C@H](C)NC(=O)[C@@H](NC(=O)[C@H](CCC(N)=O)NC(=O)[C@@H](N)CCCCN)[C@@H](C)O)[C@@H](C)O)C(=O)O` [H3.1 4-15 K9me3, reference compound], binding was put at a Kd of 0.769 ± 0.065 µM.

As to `CC[C@H](C)[C@H](NC(=O)CNC(=O)[C@H](Cc1c[nH]cn1)NC(=O)[C@@H](NC(=O)[C@@H](N)CO)[C@@H](C)O)C(=O)N[C@@H](C)C(=O)N[C@H](C(=O)N[C@@H](CCCC[N+](C)(C)C)C(=O)N[C@@H](CO)C(=O)N[C@H](C(=O)N[C@@H](CC(N)=O)C(=O)N[C@@H](CCSC)C(=O)N[C@@H](C)C(=O)N[C@@H](CO)C(=O)O)[C@@H](C)O)[C@@H](C)CC` [SETDB1 1171-1184 K1178me3] (H-STHGIAI[Lys(Me3)]STNMAS-OH; N-terminus and C-terminus assumed), the Kd is over 50 µM.

Consider `CSCC[C@H](NC(=O)[C@@H](NC(=O)[C@H](CCCC[N+](C)(C)C)NC(=O)[C@H](CCCNC(=N)N)NC(=O)[C@H](C)NC(=O)[C@H](CCCNC(=N)N)NC(=O)[C@H](Cc1c[nH]cn1)NC(=O)[C@@H](NC(=O)[C@@H](N)CCCCN)C(C)C)[C@@H](C)O)C(=O)N1CCC[C@H]1C(=O)N[C@@H](CCCCN)C(=O)N[C@@H](CO)C(=O)N[C@H](C(=O)O)C(C)C` [GLP 199-211 K205me3] (H-KVHRAR[Lys(Me3)]TMPKSV-OH), for which binding was put at a Kd of 0.337 ± 0.064 µM.

Staying with this experiment, now noted: Figure 4B, 50 mM HEPES pH 7.4, 0.1 M NaCl, 0.5 mM TCEP, 25 °C, single-site model.
As for `CC[C@H](C)[C@H](NC(=O)CNC(=O)[C@H](Cc1c[nH]cn1)NC(=O)[C@@H](NC(=O)[C@@H](N)CO)[C@@H](C)O)C(=O)N[C@@H](C)C(=O)N[C@H](C(=O)N[C@@H](CCCC[N+](C)(C)C)C(=O)N[C@@H](CO)C(=O)N[C@H](C(=O)N[C@@H](CC(N)=O)C(=O)N[C@@H](CCSC)C(=O)N[C@@H](C)C(=O)N[C@@H](CO)C(=O)O)[C@@H](C)O)[C@@H](C)CC` [SETDB1 1171-1184 K1178me3] (H-STHGIAI[Lys(Me3)]STNMAS-OH; N-terminus and C-terminus assumed), the Kd is over 80 µM.
